Results as given in PMC12155096 (International Journal of Molecular Sciences, 2025).
pIC50: −log10 of the molar value. Read-outs that look alike come from different tables or passages of the source.

What was measured:
[1] = target: Photinus pyralis (firefly) luciferase (Photinus pyralis, UniProt P08659); experiment: biochemical; format: biochemical
human CYP1A2 = target: T1, human CYP1A2 (Homo sapiens, UniProt P05177)
T1 sequence (P05177 1-516): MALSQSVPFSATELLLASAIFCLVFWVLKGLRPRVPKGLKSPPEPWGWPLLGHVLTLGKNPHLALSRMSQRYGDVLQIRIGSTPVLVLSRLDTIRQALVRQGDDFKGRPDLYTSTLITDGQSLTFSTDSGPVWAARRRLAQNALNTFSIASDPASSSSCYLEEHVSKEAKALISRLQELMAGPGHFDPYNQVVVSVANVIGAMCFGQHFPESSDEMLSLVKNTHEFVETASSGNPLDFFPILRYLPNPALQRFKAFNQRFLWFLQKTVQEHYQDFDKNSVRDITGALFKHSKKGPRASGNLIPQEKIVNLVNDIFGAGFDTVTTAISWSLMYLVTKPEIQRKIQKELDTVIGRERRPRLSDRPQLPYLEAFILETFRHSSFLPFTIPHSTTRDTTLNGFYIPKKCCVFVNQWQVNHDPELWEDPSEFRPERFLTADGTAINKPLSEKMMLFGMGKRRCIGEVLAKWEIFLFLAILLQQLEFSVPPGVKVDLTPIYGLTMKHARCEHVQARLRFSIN

human CYP2C9 = human CYP2C9 (Homo sapiens, UniProt P11712)
human CYP2C9, sequence (P11712 whole entry): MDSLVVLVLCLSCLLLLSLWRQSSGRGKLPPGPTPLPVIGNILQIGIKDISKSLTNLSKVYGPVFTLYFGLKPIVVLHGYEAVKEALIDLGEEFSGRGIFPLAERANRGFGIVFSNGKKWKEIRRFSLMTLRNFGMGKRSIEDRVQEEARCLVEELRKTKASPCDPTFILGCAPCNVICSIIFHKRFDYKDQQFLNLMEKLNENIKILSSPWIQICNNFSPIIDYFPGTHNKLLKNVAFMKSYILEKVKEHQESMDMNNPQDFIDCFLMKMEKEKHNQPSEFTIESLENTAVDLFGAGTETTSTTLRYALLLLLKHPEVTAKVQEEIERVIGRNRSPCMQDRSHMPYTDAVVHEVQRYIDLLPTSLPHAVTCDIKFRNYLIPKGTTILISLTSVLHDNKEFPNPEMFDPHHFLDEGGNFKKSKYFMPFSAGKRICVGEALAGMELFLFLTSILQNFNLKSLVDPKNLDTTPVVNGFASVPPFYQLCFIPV

human CYP2C19 = human CYP2C19 (Homo sapiens, UniProt P33261)
human CYP2C19, sequence (P33261 whole entry): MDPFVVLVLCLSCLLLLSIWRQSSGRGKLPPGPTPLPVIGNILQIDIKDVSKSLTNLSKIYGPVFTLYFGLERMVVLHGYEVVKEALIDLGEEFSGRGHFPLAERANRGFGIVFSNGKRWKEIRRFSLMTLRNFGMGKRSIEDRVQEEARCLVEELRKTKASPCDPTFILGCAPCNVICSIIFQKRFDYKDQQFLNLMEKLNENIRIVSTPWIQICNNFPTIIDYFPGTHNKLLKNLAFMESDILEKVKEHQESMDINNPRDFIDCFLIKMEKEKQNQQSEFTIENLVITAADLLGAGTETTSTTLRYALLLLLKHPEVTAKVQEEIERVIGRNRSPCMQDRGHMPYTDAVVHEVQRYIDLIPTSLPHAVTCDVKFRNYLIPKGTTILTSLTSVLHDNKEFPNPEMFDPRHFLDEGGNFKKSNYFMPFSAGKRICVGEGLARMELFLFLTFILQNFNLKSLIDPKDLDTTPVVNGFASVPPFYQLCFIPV

human CYP2D6 = human CYP2D6 (Homo sapiens, UniProt P10635)
human CYP2D6, sequence (P10635 whole entry): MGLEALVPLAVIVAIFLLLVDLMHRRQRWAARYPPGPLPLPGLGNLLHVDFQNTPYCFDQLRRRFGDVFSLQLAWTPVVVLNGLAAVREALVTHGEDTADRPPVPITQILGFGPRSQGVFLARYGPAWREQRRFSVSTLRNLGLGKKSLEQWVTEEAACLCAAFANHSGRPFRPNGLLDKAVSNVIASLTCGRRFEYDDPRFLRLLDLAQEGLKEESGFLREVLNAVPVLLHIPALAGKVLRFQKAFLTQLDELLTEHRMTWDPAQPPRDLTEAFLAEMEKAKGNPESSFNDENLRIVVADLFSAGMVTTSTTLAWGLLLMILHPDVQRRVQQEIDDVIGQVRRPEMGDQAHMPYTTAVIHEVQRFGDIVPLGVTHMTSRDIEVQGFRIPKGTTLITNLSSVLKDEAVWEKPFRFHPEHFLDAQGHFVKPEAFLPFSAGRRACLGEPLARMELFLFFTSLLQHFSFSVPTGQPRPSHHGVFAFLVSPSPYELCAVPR

CYP3A4 = CYP3A4 (Homo sapiens, UniProt P08684)
CYP3A4, sequence (P08684 whole entry): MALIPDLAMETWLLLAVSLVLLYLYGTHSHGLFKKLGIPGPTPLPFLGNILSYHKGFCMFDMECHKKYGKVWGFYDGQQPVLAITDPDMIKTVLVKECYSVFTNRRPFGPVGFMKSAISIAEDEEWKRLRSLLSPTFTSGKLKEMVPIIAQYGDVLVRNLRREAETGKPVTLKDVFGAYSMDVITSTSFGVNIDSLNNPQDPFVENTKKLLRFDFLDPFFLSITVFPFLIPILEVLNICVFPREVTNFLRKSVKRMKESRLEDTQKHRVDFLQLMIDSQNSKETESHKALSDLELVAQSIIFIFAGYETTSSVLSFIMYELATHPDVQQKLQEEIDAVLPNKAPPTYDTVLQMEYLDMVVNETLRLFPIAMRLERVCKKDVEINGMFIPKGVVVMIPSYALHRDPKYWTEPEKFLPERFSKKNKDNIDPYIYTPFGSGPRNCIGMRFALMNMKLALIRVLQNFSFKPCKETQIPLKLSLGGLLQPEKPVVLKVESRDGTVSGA

[2] = read-out: Luciferase IC50 (half-maximal inhibitory concentration)

Photinus pyralis (firefly) luciferase, sequence (P08659 whole entry): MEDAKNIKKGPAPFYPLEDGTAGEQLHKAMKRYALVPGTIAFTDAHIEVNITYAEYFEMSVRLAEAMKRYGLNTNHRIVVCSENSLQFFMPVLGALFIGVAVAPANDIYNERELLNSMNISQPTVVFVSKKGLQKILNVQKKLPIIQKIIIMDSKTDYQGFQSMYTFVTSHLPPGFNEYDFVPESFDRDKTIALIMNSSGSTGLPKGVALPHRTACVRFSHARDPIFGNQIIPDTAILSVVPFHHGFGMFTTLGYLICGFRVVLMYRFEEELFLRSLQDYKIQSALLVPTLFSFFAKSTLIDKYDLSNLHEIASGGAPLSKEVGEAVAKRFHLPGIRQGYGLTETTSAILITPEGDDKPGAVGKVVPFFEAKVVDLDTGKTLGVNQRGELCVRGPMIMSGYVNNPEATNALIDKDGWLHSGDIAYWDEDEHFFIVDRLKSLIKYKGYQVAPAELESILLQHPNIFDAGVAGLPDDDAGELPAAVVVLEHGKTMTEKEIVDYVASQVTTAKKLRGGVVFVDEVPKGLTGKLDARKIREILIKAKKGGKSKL

Row | Compound | Luciferase IC50 (half-maximal inhibitory concentration) [1] | CYP1A2 Efficacy (in parenthesis) (human CYP1A2) | pIC50 (human CYP1A2) | CYP2C19 Efficacy (in parenthesis) (human CYP2C19) | pIC50 (human CYP2C19) | CYP3A4 Efficacy (in parenthesis) (CYP3A4) | pIC50 (human CYP2D6) | pIC50 (CYP3A4) | pIC50 (human CYP2C9) | further results
1 | OCC(c1ccc(Cl)cc1)c1ccc(Cl)cc1 [2,2-Bis(4-chlorophenyl)ethanol] | Inactive | 34.28 ± 2.23 (-78 ± 6) % | 4.46 | 0.14 ± 0.07 (-161 ± 31) % | 6.85 | 18.71 ± 6.46 (64 ± 10) % |  |  |  | CYP1A2 Efficacy (human CYP1A2): 34.28 ± 2.23 (-78 ± 6) %; AC50 (human CYP2C9): 11.7 µM; CYP2C9 Efficacy (human CYP2C9): 11.71 ± 0.79 (-108 ± 10) %; CYP2C9 Efficacy (in parenthesis) (human CYP2C9): 11.71 ± 0.79 (-108 ± 10) %; CYP2C19 Efficacy (human CYP2C19): 0.14 ± 0.07 (-161 ± 31) %; CYP2D6 IC50 (half-maximal inhibitory concentration) (human CYP2D6): Inactive; AC50 (CYP3A4): 18.7 µM; CYP3A4 IC50 (half-maximal inhibitory concentration) (CYP3A4): 18.71 ± 6.46 (64 ± 10) µM
2 | CCOc1cc(OCC)c(C(C)=O)cc1OCC [2,4,5-Triethoxyacetophenone] | Inactive |  | 6.06 |  | 4.19 |  | 4.16 | 4.23 |  | CYP2C9 Efficacy (human CYP2C9): 37.98 ± 5.23 (-54 ± 11) %
3 | Cc1cc(N=Nc2ccccc2C)ccc1N [2-Amino-5-azotoluene] |  |  | 6.00 |  | 5.21 |  | 4.34 | 5.60 |  | pIC50 ([1]; read-out: Luciferase IC50): 5.25; CYP2C9 Efficacy (human CYP2C9): 5.45 ± 1.48 (-102 ± 10) %
4 | Nc1nc2ccc([N+](=O)[O-])cc2s1 [2-Amino-6-nitrobenzothiazole] |  |  | 5.01 |  | 4.45 |  | 4.36 | 4.22 |  | pIC50 ([1]; read-out: Luciferase IC50): 4.18; CYP2C9 Efficacy (human CYP2C9): 59.75 ± 4.61 (-39 ± 3) %
5 | Clc1ccc2c(c1)Nc1ccccc1S2 [2-Chlorophenothiazine] | Inactive |  | 6.36 |  | 5.11 |  |  |  |  | CYP2C9 Efficacy (human CYP2C9): 11.4 ± 3.88 (-60 ± 10) %; CYP2D6 IC50 (half-maximal inhibitory concentration) (human CYP2D6): Inactive; CYP3A4 IC50 (half-maximal inhibitory concentration) (CYP3A4): Inactive
6 | NNc1nc(-c2ccccc2)cs1 [2-Hydrazino-4-phenylthiazole] |  |  | 6.12 |  | 5.09 |  | 4.27 | 4.86 | 5.05 | pIC50 ([1]; read-out: Luciferase IC50): 4.47
7 | COc1cc2c(cc1N)oc1ccccc12 [2-Methoxy-3-aminodibenzofuran] |  |  | 6.20 |  | 5.40 |  | 5.12 | 5.07 | 5.21 | pIC50 [1, 2]: 4.26
8 | Cc1cc(-c2cc(C)c(N)c(C)c2)cc(C)c1N [3,3',5,5'-Tetramethylbenzidine] |  |  | 6.62 |  | 4.92 |  | 4.79 | 4.55 | 4.67 | Luciferase IC50 [1]: Inactive
9 | COc1cc(-c2ccc(N)c(OC)c2)ccc1N.Cl.Cl [3,3'-Dimethoxybenzidine dihydrochloride] |  |  | 6.09 |  | 5.13 |  | 4.52 | 5.77 | 5.05 | pIC50 [1, 2]: 4.22
10 | CC(=O)c1ccc2ccc3ccccc3c2c1 [3-Acetylphenanthrene] |  | 1.04 ± 0.13 (-97 ± 1) % | 5.98 | 22.42 ± 2.58 (-138 ± 3) % | 4.65 | 48.54 ± 19.2 (-66 ± 4) % | 4.05 | 4.31 | 4.93 | Luciferase Efficacy (in parenthesis) [1]: 32.81 ± 2.22 (-56 ± 6) %; pIC50 [1, 2]: 4.48; CYP2C9 Efficacy (in parenthesis) (human CYP2C9): 11.64 ± 0.79 (-93 ± 2) %; CYP2D6 Efficacy (in parenthesis) (human CYP2D6): 88.85 ± 0 (-46 ± 10) %
11 | O=C(C(=O)c1ccc(Br)cc1)c1ccc(Br)cc1 [4,4'-Dibromobenzil] | Inactive | 9.92 ± 0 (-37 ± 3) % | 5.00 | 0.71 ± 0.31 (-137 ± 6) % | 6.15 |  |  |  |  | CYP2C9 IC50 (half-maximal inhibitory concentration) (human CYP2C9): Inactive; CYP2D6 IC50 (half-maximal inhibitory concentration) (human CYP2D6): Inactive; CYP3A4 IC50 (half-maximal inhibitory concentration) (CYP3A4): Inactive
12 | c1cc(CCCc2ccncc2)ccn1 [4,4'-Propane-1,3-diyldipyridine] |  |  | 5.81 |  | 5.82 |  | 5.81 | 6.06 | 5.30 | Luciferase IC50 [1]: Inactive
13 | Cc1cccc2c1cc1ccc3cccc4ccc2c1c34 [7-Methylbenzo(a)pyrene] |  |  | 6.80 |  |  |  |  |  |  | Luciferase IC50 [1]: Inactive; AC50 (human CYP1A2): 0.16 µM; CYP2C9 IC50 (human CYP2C9): Inactive; CYP2C19 IC50 (human CYP2C19): Inactive; CYP2D6 IC50 (human CYP2D6): Inactive; AC50 (CYP3A4): 73 µM; CYP3A4 IC50 (CYP3A4): 72.98 ± 8.39 (145 ± 22) µM
14 | O=C1CCCc2c1cc1ccc3cccc4ccc2c1c34 [9,10-Dihydrobenzo[a]pyren-7(8H)-one] |  | 0.28 ± 0.05 (-100 ± 3) % | 6.55 | 26.27 ± 7.32 (-125 ± 17) % | 4.58 | 9.09 ± 1.05 (-72 ± 4) % |  | 5.04 | 5.27 | Luciferase Efficacy (in parenthesis) [1]: 9.87 ± 1.68 (-53 ± 7) %; pIC50 [1, 2]: 5.01; CYP2C9 Efficacy (in parenthesis) (human CYP2C9): 5.32 ± 0.68 (-71 ± 3) %; CYP2D6 IC50 (half-maximal inhibitory concentration) (human CYP2D6): Inactive
15 | N#Cc1cc2ccccc2c2ccccc12 [9-Cyanophenanthrene] |  |  | 7.22 |  | 4.53 |  |  |  | 4.41 | pIC50 ([1]; read-out: Luciferase IC50): 4.20; CYP2D6 IC50 (human CYP2D6): Inactive; CYP3A4 IC50 (CYP3A4): Inactive
16 | Oc1cc2ccccc2c2ccccc12 [9-Phenanthrol] |  | 0.05 ± 0.01 (-99 ± 4) % | 7.30 | 1.22 ± 0.17 (-132 ± 15) % | 5.91 | 6.1 ± 0.4 (-91 ± 4) % | 5.60 |  | 5.36 | Luciferase Efficacy (in parenthesis) [1]: 71.29 ± 8.19 (-61 ± 21) %; pIC50 [1, 2]: 4.15; CYP2C9 Efficacy (in parenthesis) (human CYP2C9): 4.41 ± 1.07 (-106 ± 2) %; CYP2D6 Efficacy (in parenthesis) (human CYP2D6): 2.53 ± 0.29 (-109 ± 3) %
17 | O=C1NCN(c2ccccc2)C12CCN(CCCOc1ccc(F)cc1)CC2 [AMI-193] |  |  |  |  |  |  | 6.22 |  |  | Luciferase IC50 [1]: Inactive; CYP1A2 IC50 (human CYP1A2): Inactive; CYP2C9 IC50 (human CYP2C9): Inactive; CYP2C19 AC50 (half-maximal activity concentration) (human CYP2C19): Inconclusive inhibitor; CYP2C19 IC50 (human CYP2C19): Inactive; AC50 (human CYP2D6): 0.6 µM; AC50 (CYP3A4): 4.72 µM; CYP3A4 IC50 (CYP3A4): 4.72 ± 0.31 (133 ± 10) µM
18 | COC(=O)c1cc(Cl)ccc1NS(=O)(=O)C(F)(F)F [Amidoflumet] | Inactive |  | 6.04 |  |  |  |  |  |  | CYP2C9 IC50 (half-maximal inhibitory concentration) (human CYP2C9): Inactive; CYP2C19 IC50 (half-maximal inhibitory concentration) (human CYP2C19): Inactive; CYP2D6 IC50 (half-maximal inhibitory concentration) (human CYP2D6): Inactive; CYP3A4 IC50 (half-maximal inhibitory concentration) (CYP3A4): Inactive
19 | COP(=S)(NC(C)C)Oc1ccc(C)cc1[N+](=O)[O-] (centres unmarked) [Amiprofos-methyl] | Inactive | 12.35 ± 5.02 (-104 ± 9) % | 4.91 | 0.41 ± 0.19 (-132 ± 27) % | 6.39 | 0.55 ± 0.08 (-87 ± 1) % | 4.38 | 6.26 | 5.56 | CYP2C9 Efficacy (in parenthesis) (human CYP2C9): 2.74 ± 0.38 (-109 ± 3) %; CYP2D6 Efficacy (in parenthesis) (human CYP2D6): 41.71 ± 5.32 (-58 ± 14) %
20 | COP(=S)(OC)SCn1nnc2ccccc2c1=O [Azinphos-methyl] |  |  |  |  |  | 11.45 ± 2.62 (-87 ± 5) % |  |  |  | Luciferase Efficacy (in parenthesis) [1]: 47.70 ± 13.48 (-40 ± 2) %; CYP1A2 Efficacy (in parenthesis) (human CYP1A2; human): 28.26 ± 0 (-93 ± 8) %; CYP2C9 Efficacy (in parenthesis) (human CYP2C9; human): 3.88 ± 0.66 (-99 ± 12) %; CYP2C19 Efficacy (in parenthesis) (human CYP2C19; human): 1.01 ± 0.12 (-134 ± 9) %; CYP2D6 Efficacy (in parenthesis) (human CYP2D6; human): 55.48 ± 13.48 (-75 ± 13) %
21 | COc1ccc(OC)c(N=Nc2c(O)ccc3ccccc23)c1 [C.I. Solvent Red 80] |  |  | 6.12 |  | 5.10 |  | 4.87 | 5.55 | 5.20 | pIC50 [1, 2]: 5.16
22 | Cl.Clc1ccc(Cn2c(CN3CCCC3)nc3ccccc32)cc1 [Clemizole hydrochloride] | Inactive | 17.64 ± 0.46 (-72 ± 13) % | 4.75 | 0.68 ± 0.17 (-140 ± 7) % | 6.17 | 6.24 ± 1.17 (-72 ± 1) % | 5.81 | 5.20 | 4.79 | CYP2C9 Efficacy (in parenthesis) (human CYP2C9): 16.12 ± 1.09 (-82 ± 4) %; CYP2D6 Efficacy (in parenthesis) (human CYP2D6): 1.56 ± 0.18 (-101 ± 1) %
23 | Cl.Clc1ccc(C(OCCN2CCCCC2)c2ccccc2)cc1 (centres unmarked) [Cloperastine hydrochloride] |  |  | 4.65 |  | 4.73 |  | 6.77 | 5.35 |  | Luciferase IC50 [1]: Inactive; CYP2C9 IC50 (human CYP2C9): Inactive
